# From BindingDB's records for patent US20250313563 (The Broad Institute, 2025)
# pIC50: −log10 of the molar value. Values joined by “and” are separate entries in the source; they are usually repeats but may differ in a detail not shown here. Equal values may be shown once.
# How the values were obtained:
# [1] = molecular target: Glycogen synthase kinase-3 beta (Homo sapiens, UniProt P49841); assay: TR-FRET Assay
# Protocol: (§1) The assay was performed in a white, 384 well, low volume, flat bottom plate (Grenier). […] The kinase activity was quenched with 2 μL of 250 mM EDTA. A 10 μL volume of 40 nM Strepavidin-d2, 2 nM Tb2+-pSer641 antibody in TR-FRET Detection Buffer (Invitrogen) was then added.
# [2] = molecular target: Glycogen synthase kinase-3 alpha (Homo sapiens, UniProt P49840); assay: TR-FRET Assay
# Glycogen synthase kinase-3 alpha, sequence (P49840 whole entry): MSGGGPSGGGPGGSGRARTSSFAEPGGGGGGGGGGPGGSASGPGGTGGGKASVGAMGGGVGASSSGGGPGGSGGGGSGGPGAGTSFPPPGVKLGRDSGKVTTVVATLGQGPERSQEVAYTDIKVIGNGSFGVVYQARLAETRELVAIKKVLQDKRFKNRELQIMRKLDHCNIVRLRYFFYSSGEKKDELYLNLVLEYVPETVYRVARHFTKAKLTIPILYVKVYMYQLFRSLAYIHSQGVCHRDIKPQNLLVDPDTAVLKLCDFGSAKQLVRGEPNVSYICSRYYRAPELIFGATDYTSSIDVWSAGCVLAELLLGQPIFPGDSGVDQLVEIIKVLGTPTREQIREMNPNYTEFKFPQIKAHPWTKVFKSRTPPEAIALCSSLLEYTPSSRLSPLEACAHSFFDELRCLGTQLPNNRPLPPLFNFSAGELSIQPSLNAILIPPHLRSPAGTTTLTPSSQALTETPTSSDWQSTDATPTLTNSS
# Protocol: as §1
# Glycogen synthase kinase-3 beta, sequence (P49841 whole entry): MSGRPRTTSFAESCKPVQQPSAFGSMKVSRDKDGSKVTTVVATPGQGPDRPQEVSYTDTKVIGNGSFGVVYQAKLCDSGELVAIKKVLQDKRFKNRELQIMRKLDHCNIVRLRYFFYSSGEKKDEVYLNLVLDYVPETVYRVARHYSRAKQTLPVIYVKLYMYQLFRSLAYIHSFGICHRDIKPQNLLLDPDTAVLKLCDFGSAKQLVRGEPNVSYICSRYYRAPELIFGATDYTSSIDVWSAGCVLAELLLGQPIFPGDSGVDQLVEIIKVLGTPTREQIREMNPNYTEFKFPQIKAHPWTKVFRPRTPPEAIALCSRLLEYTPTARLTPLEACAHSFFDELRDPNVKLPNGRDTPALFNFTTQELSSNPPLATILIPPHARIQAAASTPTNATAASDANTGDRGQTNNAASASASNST
pIC50 [1],pIC50 [2],SMILES
6.00 to 7.00 and 5.30 to 6.00,6.00 to 7.00,"CC[C@@]1(c2cccc(-c3ccnc4c3CCC4)c2)C2=CN=NC2NC2=C1C(=O)CC(C)(C)C2 (some centres undefined) [US20250313563, Compound 945606]"
< 5.30,6.00 to 7.00,"CCC1(c2cccc(C(F)(F)F)c2)C2=C(N=NC2)NC2=C1C(=O)NC2 (centres undefined) [US20250313563, Compound 913156]"
6.00 to 7.00,> 7.00,"CC1(C)CC(=O)C2=C(C1)NC1=C(CN=N1)[C@]21COC2(CN(C(=O)C(F)(F)F)C2)C1 [US20250313563, Compound 948156]"
> 7.00,> 7.00,"CCC1(c2cccc(-c3ccnn3C)c2)C2=C(CC(C)(C)CC2=O)NC2N=NC(C)=C21 (centres undefined) [US20250313563, Compound 883992]"
6.00 to 7.00,> 7.00,"Cc1ccc(C)c(S(=O)(=O)N2CCC3(CC2)C2=C(N=NC2)NC2=C3C(=O)CC(C)(C)C2)c1 [US20250313563, Compound 947471]"
6.00 to 7.00,6.00 to 7.00,"COC(=O)C1CCC2(CC1)C1=C(N=NC1)NC1=C2C(=O)CC(C)(C)C1 (centres undefined) [US20250313563, Compound 918270]"
< 5.30,< 5.30,"CC[C@@]1(c2cccc(-c3ccncc3)c2)C2=CN=NC2NC2=C1C(=O)CC(C)(C)[C@@H]2F (some centres undefined) [US20250313563, Compound 959344]"
> 7.00,> 7.00,"CCC1(c2cccc(S(=O)(=O)C3CC3)c2)C2=C(CC(C)(C)NC2=O)NC2=C1C(C(F)(F)F)N=N2 (centres undefined) [US20250313563, Compound 947859]"
> 7.00,> 7.00,"CN(C)C(=O)c1ccc(S(=O)(=O)N2CCC3(CC2)C2=C(N=NC2)NC2=C3C(=O)CC(C)(C)C2)cc1 [US20250313563, Compound 945659]"
6.00 to 7.00,> 7.00,"CC[C@@]1(c2cccc(-c3ccnc(C)c3)c2)C2=C(CC(C)(C)NC2=O)NC2N=NC(C)=C21 (some centres undefined) [US20250313563, Compound 948420]"
5.30 to 6.00,6.00 to 7.00,"CC[C@]1(c2cccc(-c3ccnc4ccc(Cl)cc34)c2)C2=CN=NC2NC2=C1C(=O)NC(C)(C)C2 (some centres undefined) [US20250313563, Compound 948530]"
> 7.00,> 7.00,"CC[C@]1(c2cccc(Oc3cncnc3)c2)C2=CN=NC2NC2=C1C(=O)CC(C)(C)C2 (some centres undefined) [US20250313563, Compound 945933]"
5.30 to 6.00,6.00 to 7.00,"CC[C@@]1(c2cccc(C(F)(F)F)c2)C2=CN=NC2NC2=C1C(=O)N(C)C(C)(C)C2 (some centres undefined) [US20250313563, Compound 826791]"
< 5.30,5.30 to 6.00,"CC[C@]1(c2cccc(-c3ccnc4c3CCCC4)c2)C2=CN=NC2NC2=C1C(=O)CC(C)(C)C2 (some centres undefined) [US20250313563, Compound 944036]"
> 7.00,> 7.00,"CC1(C)CC(=O)C2=C(NC3N=NC=C3C23CCCCC3)[C@H]1F (some centres undefined) [US20250313563, Compound 951711]"
6.00 to 7.00,> 7.00,"CC[C@]1(c2cccc(N3CCCC[C@H]3C)c2)C2=CN=NC2NC2=C1C(=O)CC(C)(C)C2 (some centres undefined) [US20250313563, Compound 917209]"
< 5.30,< 5.30,"CC[C@]1(c2cccc(-c3cc(C)nn3C)c2)C2=CN=NC2NC2=C1C(=O)CC(C)(C)C2 (some centres undefined) [US20250313563, Compound 946000]"
6.00 to 7.00,6.00 to 7.00,"CCC1(c2cccc(N3CCCCCC3)c2)C2=CN=NC2NC2=C1C(=O)CC(C)(C)C2 (centres undefined) [US20250313563, Compound 885088]"
6.00 to 7.00,> 7.00,"CC[C@]1(c2cccc(C(F)(F)F)c2)C2=CN=NC2NC2=C1C(=O)N(C(C)C)CC2 (some centres undefined) [US20250313563, Compound 857336]"
5.30 to 6.00,6.00 to 7.00,"C[C@@H]1C[C@@]2(CCO1)C1=C(N=NC1)NC1=C2C(=O)CC(C)(C)C1 [US20250313563, Compound 899559]"
> 7.00,> 7.00,"CCC1(c2cccc(-c3ccn(C)n3)c2)C2=C(CC(C)(C)CC2=O)NC2N=NC(C)=C21 (centres undefined) [US20250313563, Compound 883999]"
> 7.00,> 7.00,"CCC1(c2cccc(C(C)C)c2)C2=C(CC(C)(C)NC2=O)NC2N=NC(C(F)(F)F)=C21 (centres undefined) [US20250313563, Compound 949747]"
5.30 to 6.00,6.00 to 7.00,"CC[C@@]1(c2cccc(OC(C)C)c2)C2=C(CC(C)(C)CC2=O)NC2N=NC(C(F)(F)F)=C21 (some centres undefined) [US20250313563, Compound 947872]"
< 5.30,5.30 to 6.00,"CC[C@@]1(c2cccc(C3CCOCC3)c2)C2=CN=NC2NC2=C1C(=O)CC(C)(C)C2 (some centres undefined) [US20250313563, Compound 819639]"
6.00 to 7.00,6.00 to 7.00,"CC1(C)CC(=O)C2=C(C1)NC1=C(CN=N1)C21CN(S(=O)(=O)c2ccccc2F)C1 [US20250313563, Compound 913263]"
< 5.30,< 5.30,"CC[C@]1(c2cccc(N(C)c3cccc(OC)n3)c2)C2=CN=NC2NC2=C1C(=O)CC(C)(C)C2 (some centres undefined) [US20250313563, Compound 932646]"

pIC50 [1],pIC50 [2],SMILES
> 7.00,> 7.00,"Cn1nccc1-c1cccc2c1CCC[C@@]21C2=CN=NC2NC2=C1C(=O)CC(C)(C)C2 (some centres undefined) [US20250313563, Compound 945551]"
6.00 to 7.00 and < 5.30,> 7.00 and 6.00 to 7.00,"CC[C@@]1(c2cccc(-c3cnn4c3CCCC4)c2)C2=CN=NC2NC2=C1C(=O)NC(C)(C)C2 (some centres undefined) [US20250313563, Compound 947410]"
> 7.00,> 7.00,"Cc1cc(S(=O)(=O)N2CCC3(CC2)C2=C(N=NC2)NC2=C3C(=O)CC(C)(C)C2)ccn1 [US20250313563, Compound 947481]"
> 7.00,> 7.00,"CCC1(c2cccc(Cl)c2)C2=C(CC(C)(C)CC2=O)NC2N=NC(Br)=C21 (centres undefined) [US20250313563, Compound 789564]"
< 5.30,< 5.30,"CC[C@]1(c2cccc(-c3cnn(-c4ccccn4)c3)c2)C2=CN=NC2NC2=C1C(=O)NC(C)(C)C2 (some centres undefined) [US20250313563, Compound 949264]"
> 7.00,> 7.00,"C[C@@H]1CCC[C@@]2(C1)C1=C(N=NC1)NC1=C2C(=O)CC(C)(C)C1 [US20250313563, Compound 874532]"
6.00 to 7.00,6.00 to 7.00,"CC1(C)CC(=O)C2=C(C1)NC1=C(CN=N1)C21Cc2ccccc21 (centres undefined) [US20250313563, Compound 917226]"
6.00 to 7.00,6.00 to 7.00,"CC1(C)CC(=O)C2=C(C1)NC1=C(CN=N1)C21COC1 [US20250313563, Compound 889569]"
> 7.00 and 5.30 to 6.00,> 7.00 and 6.00 to 7.00,"CCOc1cccc(S(=O)(=O)N2CCC3(CC2)C2=C(N=NC2)NC2=C3C(=O)CC(C)(C)C2)c1 [US20250313563, Compound 947253]"
6.00 to 7.00,> 7.00,"CCC1(c2cccc(-c3ccnn3C)c2)C2=CN=NC2NC2=C1C(=O)NC(C)(C)C2 (centres undefined) [US20250313563, Compound 914971]"
> 7.00,> 7.00,"CC[C@@]1(c2cccc(C(F)(F)F)c2)C2=C(CC(C)(C)CC2=O)NC2N=NC(C)=C21 (some centres undefined) [US20250313563, Compound 810367]"
> 7.00,> 7.00,"CCn1nccc1-c1cccc(C2(CC)C3=CN=NC3NC3=C2C(=O)CC(C)(C)C3)c1 (centres undefined) [US20250313563, Compound 929398]"
6.00 to 7.00,> 7.00,"CC[C@]1(c2cc(-c3ccnc(C)c3)ccc2F)C2=CN=NC2NC2=C1C(=O)CC(C)(C)C2 (some centres undefined) [US20250313563, Compound 909212]"
> 7.00,> 7.00,"COCc1ccc(S(=O)(=O)N2CCC3(CC2)C2=C(N=NC2)NC2=C3C(=O)CC(C)(C)C2)cc1 [US20250313563, Compound 947250]"
> 7.00 and 6.00 to 7.00,> 7.00,"CC[C@@]1(c2cccc(-c3cn(C)nc3C)c2)C2=C(CC(C)(C)NC2=O)NC2N=NC(C(F)F)=C21 (some centres undefined) [US20250313563, Compound 950497]"
5.30 to 6.00,6.00 to 7.00,"CC[C@@]1(c2cccc(N(C)c3cncnc3)c2)C2=CN=NC2NC2=C1C(=O)NC(C)(C)C2 (some centres undefined) [US20250313563, Compound 915401]"
6.00 to 7.00,6.00 to 7.00,"CC[C@@]1(c2cccc(-c3cnn(-c4ccccc4)c3C(F)(F)F)c2)C2=CN=NC2NC2=C1C(=O)NC(C)(C)C2 (some centres undefined) [US20250313563, Compound 951837]"
6.00 to 7.00,> 7.00,"CC[C@@]1(c2cccc(-c3cc(OC)ncc3F)c2)C2=CN=NC2NC2=C1C(=O)NC(C)(C)C2 (some centres undefined) [US20250313563, Compound 949109]"
6.00 to 7.00,> 7.00,"CCC1(c2cccc(Nc3ncccn3)c2)C2=CN=NC2NC2=C1C(=O)CC(C)(C)C2 (centres undefined) [US20250313563, Compound 913334]"
> 7.00,> 7.00,"CC1(C)CC(=O)C2=C(C1)NC1=C(CN=N1)C21CCN(S(=O)(=O)c2cccc(Cl)c2Cl)CC1 [US20250313563, Compound 947249]"
< 5.30,< 5.30,"CC[C@]1(c2cccc(-c3c(C)cncc3C)c2)C2=CN=NC2NC2=C1C(=O)NC(C)(C)C2 (some centres undefined) [US20250313563, Compound 948829]"
6.00 to 7.00,6.00 to 7.00,"CCC1(c2cccc(N(C)c3ccc(C)nc3)c2)C2=CN=NC2NC2=C1C(=O)CC(C)(C)C2 (centres undefined) [US20250313563, Compound 918272]"
5.30 to 6.00,6.00 to 7.00,"CC[C@]1(c2cccc(-c3ccncc3F)c2)C2=CN=NC2NC2=C1C(=O)NC(C)(C)C2 (some centres undefined) [US20250313563, Compound 947874]"
> 7.00,> 7.00,"C[C@H]1C[C@@]2(CCN1S(C)(=O)=O)C1=CN=NC1NC1=C2C(=O)CC(C)(C)C1 (some centres undefined) [US20250313563, Compound 926827]"
< 5.30,< 5.30,"CC[C@]1(c2cccc(-c3cnn4ccncc34)c2)C2=CN=NC2NC2=C1C(=O)NC(C)(C)C2 (some centres undefined) [US20250313563, Compound 949263]"
> 7.00,> 7.00,"CC[C@@]1(c2cccc(S(C)(=O)=O)c2)C2=CN=NC2NC2=C1C(=O)NC(C)(C)C2 (some centres undefined) [US20250313563, Compound 945604]"
